Results from paper PMC9501633, “Synthesis, Characterisation and Mechanism of Action of Anticancer 3-Fluoroazetidin-2-ones” (Pharmaceuticals, 2022).

Legend:
[1] = tested on: Bcl-2; experiment: Western blot of apoptosis regulatory proteins in MCF-7 cells; type: cell-based, human; details: MCF-7, 0.05, 0.1 and 0.5 μM, 48 and 72 h, dose-dependent
Procedure: (§1) The selective Bcl-2 inhibitor venetoclax was developed as a BH3-mimetic that binds to the pro-survival protein Bcl-2 and inhibits its ability to bind Bax or Bak. Venetoclax has been approved for clinical use in the treatment of chronic lymphocytic leukaemia (CLL). Compound 33 induced downregulation of Bcl-2 expression with corresponding upregulation of Bax at 48 h in a dose-dependent manner. This effect was further increased at 72 h.
(§2) Western blot analysis was performed according to the protocols we previously described. MCF-7 cells were seeded at a density of 1 × 10^5 cells/flask in T25 flasks. After 48 h, whole cell lysates were prepared from untreated cells or cells treated with vehicle control (EtOH, 0.1% v/v) or cells treated with compound 33 (0.05 μM, 0.1 μM and 0.5 μM). MCF-7 cells were harvested in RIPA buffer which was supplemented with protease inhibitors (Roche Diagnostics, Rotkreuz, Switzerland), phosphatase inhibitor cocktail 2 (Sigma-Aldrich, Arklow, Ireland) and phosphatase inhibitor cocktail 3 (Sigma-Aldrich, Arklow, Ireland). Equal amounts of protein (as determined by a BCA assay) were resolved by SDS-PAGE (12%) followed by transfer to PVDF membranes. […] Proteins were detected using enhanced chemiluminescent Western blot detection (Clarity Western ECL substrate) (Bio-Rad) on the ChemiDoc MP System (Bio-Rad). […]

[2] = tested on: Bax; experiment: as above; type: cell-based, human; details: MCF-7, 0.05, 0.1 and 0.5 μM, 48 and 72 h, dose-dependent
Procedure: as §1, §2

[3] = tested on: survivin; experiment: as above; type: cell-based, human; details: MCF-7, 0.05, 0.1 and 0.5 μM, dose- and time-dependent
Excerpt: Survivin is a member of the inhibitor of apoptosis (IAP) protein family. It is an essential anti-apoptotic protein marker that is overexpressed in most tumour cells and is associated with a poor clinical outcome. Survivin inhibits caspase activation, which is used as an indicator of apoptosis cascades. Survivin selective inhibitor molecules have been identified as cancer therapeutics, including survivin–partner protein interaction inhibitors, survivin homodimerisation inhibitors, survivin gene transcription inhibitors and survivin mRNA inhibitors. We examined the effect of a range of concentrations of compound 33 (0.05, 0.1 and 0.5 μM) on the level of survivin expressed.
as §2, with “MCF-7 cells were harvested in RIPA buffer which was supplemented with protease inhibitors (Roche Diagnostics, Rotkreuz, Switzerland), phosphatase inhibitor cocktail 2 (Sigma-Aldrich, Arklow, Ireland) and phosphatase inhibitor cocktail 3 (Sigma-Aldrich, Arklow, Ireland).” left out

[4] = Stability in phosphate buffers (HPLC); type: physicochemical
Procedure: The β-lactam ring is known to undergo hydrolysis/degradation depending on the substituent type on the ring. For example, degradation of monocyclic β-lactam antibiotic aztreonam increased with elevated humidity, temperature and acidic pH buffer. Ezetimibe, a monocyclic β-lactam drug used to reduce blood cholesterol, undergoes degradation and hydrolysis more rapidly in neutral and basic pH conditions than in acidic pH [71]. The stability of representative compounds 33 and 39 was also determined at pH 4, pH 7.4 (plasma) and pH 9 (intestine) by HPLC. […] The electron-withdrawing effect of the 3-fluoro substituent may result in decreasing stability of the β-lactam ring in response to acid hydrolysis.
The stability study for compounds 33 and 39 was performed using analytical HPLC (Symmetry column (C18, […], 4.6 × 150 mm), dual wavelength absorbance detector (Waters 2487), binary HPLC pump (Waters 1525) and autosampler (Waters 717 plus)) with mobile phase acetonitrile (70%)/water (30%), flow rate 1 mL/min over 15 min and detection at λ 254 nm. Stock solutions of compounds 33 and 39 (1 mg/mL in mobile phase) were used. Dilutions of 0.5 mg/mL, 0.25 mg/mL, 0.125 mg/mL, 0.0625 mg/mL, 0.03125 mg/mL, 0.015625 mg/mL and 0.0078 mg/mL were prepared for the calibration curve. (i) Stability of 33 and 39 in phosphate buffers: The phosphate buffers were prepared in accordance with the British Pharmacopoeia 2020 at pH values 4, 7.4 and 9. Stock solution, 300 µL (1 mg/mL ACN), was added to a vial containing buffer (9.7 mL), mixed and pre-heated to 37 °C. 1 mL of the solution was introduced into an HPLC vial. Samples (10 µL) were injected and analysed at time intervals of t = 0 min, 5 min, 30 min, 60 min and hourly for 24 h. The analysis was performed in triplicate. (ii) Thermal stability: Compounds 33 and 39 (1 mL stock solution) were each placed in a vial for 4 h at 60 °C on a heating block. The sample was then cooled, diluted with acetonitrile and analysed by HPLC. (iii) Photostability study: Compounds 33 and 39 (stock solution, 1 mL) were placed in a vial, exposed to UV light for 4 h and then analysed by HPLC. (iv) Stability in acidic conditions: HCl (0.1 M, 0.2 mL) was added to stock solutions (0.8 mL) of 33 and 39 in a vial. The vial was vortexed and retained at room temperature. A sample was neutralised with NaOH (0.1 M, 0.2 mL) each hour for 4 h and then analysed by HPLC. (v) Stability of 33 and 39 in basic (alkaline) conditions: NaOH (0.1 M, 0.2 mL) was added to stock solution (0.8 mL) in a vial. The vial was vortexed and retained at room temperature. A sample was neutralised with HCl (0.1 M, 0.2 mL) every hour for 4 h then analysed by HPLC. (vi) Stability of 33 and 39 in oxidising conditions: H2O2 (3%, 0.2 mL) was added to the stock solution (0.8 mL). The vial was vortexed to obtain a homogeneous mixture and retained at room temperature, and a sample was analysed by HPLC every hour for 4 h.

[5] = tested on: purified bovine brain tubulin; parameters: method as in PMID 31954879; details: 10 μM; cited from earlier work

SMILES | Bcl-2 expression [1] | Bax expression [2] | survivin expression [3] | remaining at 24 h, 0.03 mg/mL ([4]; phosphate buffer pH 4, 37 °C) [%] | remaining at 24 h, 0.03 mg/mL ([4]; phosphate buffer pH 7.4, 37 °C) [%] | remaining at 24 h, 0.03 mg/mL ([4]; phosphate buffer pH 9, 37 °C) [%] | remaining at 0.03 mg/mL ([4]; phosphate buffer, pH 11 (as printed in Table S7)) [%] | reduction in the Vmax of tubulin polymerisation [5] [fold]
COc1ccc(C2C(F)C(=O)N2c2cc(OC)c(OC)c(OC)c2)cc1F (centres unmarked) [Compound 33, 3-Fluoro-4-(3-fluoro-4-methoxyphenyl)-1-(3,4,5-trimethoxyphenyl)azetidin-2-one] | downregulation | upregulation | downregulation | 76 | 87 | 26 | 26 | 
COc1ccc(/C=C\c2cc(OC)c(OC)c(OC)c2)cc1O [CA-4, combretastatin A-4, reference compound] |  |  |  |  |  |  |  | 6.3
